Measured values: patent US10544140B2, “Pharmaceutical composition containing, as active ingredient, 7-azaindolin-2-one derivative or pharmaceutically acceptable salt thereof” (LG CHEM, LTD., priority 2015, dated 2020)

Tests used:
[1] = test system: MCF-7 (human breast cancer cell line); test: Cytotoxicity test by MTT assay, MCF-7; format: cell-based; settings: Homo sapiens, MCF7; for cytotoxicity at 30 µM: MCF-7, 30 μM, 48 h, read-out: Cell viability (% inhibition); for IC50: MCF-7, 48 h
Method: (§1) A cytotoxicity test was measured by MTT assay. Each cell line was cultured in a 96-well plate at a density of 1×10^4 cells/well. […] MTT (3-(4,5-dimethylthiazol-2-yl)-2,5-diphenyltetrazolium bromide) solution (5 mg/mL) was added to each well and reacted for 4 hours in an incubator. […] After reacting in an incubator for 30 minutes, the formation of formazan was quantified using a microplate reader at an absorbance of 540 nm. […] At this time, sunitinib was used as a control group. […] The human cancer cell lines used herein are MCF-7 (breast cancer), MDA-MB-231 (breast cancer), HT-29 (colon cancer), DU145 (prostate cancer), U937 (myeloid leukemia), A549 (lung cancer), PANC-1 (pancreatic cancer) and MIA PaCa-2 (pancreatic cancer).

[2] = Cytotoxicity test by MTT assay, CHO-K1 normal cell line; format: cell-based; settings: Chinese hamster, CHO-K1 cells (normal cell line)
Method: (§2) A cytotoxicity test was measured by MTT assay. Each cell line was cultured in a 96-well plate at a density of 1×10^4 cells/well. After 24 hours, the culture medium containing 1% FBS (fetal bovine serum) was treated and reacted with compounds or solutions of compounds for 48 hours. MTT (3-(4,5-dimethylthiazol-2-yl)-2,5-diphenyltetrazolium bromide) solution (5 mg/mL) was added to each well and reacted for 4 hours in an incubator. […] After reacting in an incubator for 30 minutes, the formation of formazan was quantified using a microplate reader at an absorbance of 540 nm.

[3] = test system: MDA-MB-231 (breast cancer); test: Cytotoxicity test by MTT assay, MDA-MB-231; format: cell-based, human; settings: Homo sapiens, MBA-MB-231, 48 h
Method: (§3) A cytotoxicity test was measured by MTT assay. Each cell line was cultured in a 96-well plate at a density of 1×10^4 cells/well. After 24 hours, the culture medium containing 1% FBS (fetal bovine serum) was treated and reacted with compounds or solutions of compounds for 48 hours. MTT (3-(4,5-dimethylthiazol-2-yl)-2,5-diphenyltetrazolium bromide) solution (5 mg/mL) was added to each well and reacted for 4 hours in an incubator. […] After reacting in an incubator for 30 minutes, the formation of formazan was quantified using a microplate reader at an absorbance of 540 nm. […] The human cancer cell lines used herein are MCF-7 (breast cancer), MDA-MB-231 (breast cancer), HT-29 (colon cancer), DU145 (prostate cancer), U937 (myeloid leukemia), A549 (lung cancer), PANC-1 (pancreatic cancer) and MIA PaCa-2 (pancreatic cancer).

[4] = Cytotoxicity test by MTT assay, HEK293 normal cell line; format: cell-based; settings: human, HEK293 cells (normal cell line)
Method: as §2

HT-29 (colon cancer) = test: Cytotoxicity test by MTT assay, HT-29; format: cell-based, human; settings: Homo sapiens, HT-29, 48 h
Method: as §3

U937 (myeloid leukemia) = test: Cytotoxicity test by MTT assay, U937; format: cell-based, human; settings: Homo sapiens, U-937; U937, 48 h
Method: as §3

A549 (lung cancer) = test: Cytotoxicity test by MTT assay, A549; format: cell-based, human; settings: Homo sapiens, A549, 48 h
Method: as §3

[5] = test system: PANC-1 (human pancreatic cancer cell line); test: Cytotoxicity test by MTT assay, PANC-1; format: cell-based; settings: for cytotoxicity at 30 µM / IC50: Homo sapiens; for cytotoxicity at 30 µM: PANC-1, 30 μM, 48 h, read-out: Cell viability (% inhibition); for IC50: PANC-1, 48 h
Method: as §1

DU145 (prostate cancer) = test: Cytotoxicity test by MTT assay, DU145; format: cell-based, human; settings: DU-145; for IC50: Homo sapiens, DU145, 48 h
Method: as §3

SMILES | cytotoxicity at 30 µM [1] [%] | IC50 [1] [µM] | IC50 at 48 h [2] [µM] | IC50 [3] [µM] | IC50 at 48 h [4] [µM] | IC50 (HT-29 (colon cancer)) [µM] | IC50 (U937 (myeloid leukemia)) [µM] | IC50 (A549 (lung cancer)) [µM] | cytotoxicity at 30 µM [5] [%] | cytotoxicity compared with the reference drug sunitinib (DU145 (prostate cancer)) | IC50 (DU145 (prostate cancer)) [µM] | IC50 [5] [µM] | cytotoxicity compared with the reference drug sunitinib ([5]; PANC-1)
Cc1nc2c(c(C)c1O)/C(=C/c1[nH]c(C)c(C(=O)N3CCCCC3)c1C)C(=O)N2 [Compound I-43, (Z)-3-((3,5-Dimethyl-4-(piperidine-1-carbonyl)-1H-pyrrol-2-yl)methylene)-5-hydroxy-4,6-dimethyl-1H-pyrrolo[2,3-b]pyridin-2(3H)-one] | 50.5 | 26.9 | 14.8 | 14.8 | > 90 | 16.6 | 9.77 | 12.1 | 38.5 | – | – | – | –
COc1ccc(OC)c(/C=C2\C(=O)Nc3nc(C)c(O)c(C)c32)c1 [Compound I-15, (Z)-3-(2,5-Dimethoxybenzylidene)-5-hydroxy-4,6-dimethyl-1H-pyrrolo[2,3-b]pyridin-2(3H)-one] | 67.5 | 20.9 | 47.5 | 22.9 | 37.8 | 16.6 | 33 | 47.5 | 69.2 | greater than or equal to that of the reference drug sunitinib | 5.55 | 19.5 | –
Cc1cc(C)c(/C=C2\C(=O)Nc3nc(C)c(O)c(C)c32)[nH]1 [Compound I-36, (Z)-3-((3,5-Dimethyl-1H-pyrrol-2-yl)methylene)-5-hydroxy-4,6-dimethyl-1H-pyrrolo[2,3-b]pyridin-2(3H)-one] | 47.3 | 31.6 | 50.1 | 10.2 | > 90 | 16.6 | 33.9 | 13.9 | 44.7 | – | – | – | –
Cc1nc2c(c(C)c1O)/C(=C/c1cccnc1)C(=O)N2 [Compound I-22, (Z)-5-Hydroxy-4,6-dimethyl-3-(pyridin-3-ylmethylene)-1H-pyrrolo[2,3-b]pyridin-2(3H)-one] | 78 | 17.4 | 78.5 | 9.61 | > 90 | 19.9 | 14.5 | 13.8 | 72.7 | greater than or equal to that of the reference drug sunitinib | 1.18 | – | –
CCOC(=O)c1c(C)[nH]c(/C=C2\C(=O)Nc3nc(C)c(O)c(C)c32)c1C [Compound I-38, (Z)-Ethyl-5-((5-hydroxy-4,6-dimethyl-2-oxo-1H-pyrrolo[2,3-b]pyridin-3(2H)-ylidene)methyl)-2,4-dimethyl-1H-pyrrole-3-carboxylate] | 41.7 | 39.8 | 24 | 24.5 | > 90 | 22.9 | 12.9 | 18.2 | 35.7 | – | – | – | –
Cc1nc2c(c(C)c1O)/C(=C/c1ccncc1)C(=O)N2 [Compound I-23, (Z)-5-Hydroxy-4,6-dimethyl-3-(pyridin-4-ylmethylene)-1H-pyrrolo[2,3-b]pyridin-2(3H)-one] | 63.2 | 19.1 | 57 | – | 45.7 | 30.1 | 34.5 | 30.1 | 65.4 | – | 30.1 | 19.1 | –
Cc1nc2c(c(C)c1O)/C(=C/c1[nH]c(C)c(C(=O)N3CCOCC3)c1C)C(=O)N2 [Compound I-46, (Z)-3-((3,5-Dimethyl-4-(morpholine-4-carbonyl)-1H-pyrrol-2-yl)methylene)-5-hydroxy-4,6-dimethyl-1H-pyrrolo[2,3-b]pyridin-2(3H)-one] | 71.2 | 12.6 | > 90 | 14.5 | > 90 | 57.5 | – | 30.1 | 71.1 | – | 22.9 | 11.5 | greater than or equal to that of the reference drug sunitinib
Cc1nc2c(c(C)c1O)/C(=C/c1[nH]c(C)c(C(=O)N3CCN(C)CC3)c1C)C(=O)N2 [Compound I-45, (Z)-3-((3,5-Dimethyl-4-(4-methylpiperazine-1-carbonyl)-1H-pyrrol-2-yl)methylene)-5-hydroxy-4,6-dimethyl-1H-pyrrolo[2,3-b]pyridin-2(3H)-one] | 60.7 | 10.2 | 23.4 | 16.2 | 38 | 36.1 | 26.2 | 26.3 | 48.7 | – | – | – | –
COc1cccc2c1C(=O)c1c(O)c3c(c(O)c1C2=O)C[C@@](O)(C(=O)CO)C[C@@H]3O[C@H]1C[C@H](N)[C@H](O)[C@H](C)O1 [Doxorubicin, reference compound] | – | – | 12.1 | – | 0.32 | – | – | – | – | – | – | – | –
Cc1nc2c(c(C)c1O)/C(=C/c1[nH]c(C)c(C(=O)N3CCCC3)c1C)C(=O)N2 [Compound I-44, (Z)-3-((3,5-Dimethyl-4-(pyrrolidine-1-carbonyl)-1H-pyrrol-2-yl)methylene)-5-hydroxy-4,6-dimethyl-1H-pyrrolo[2,3-b]pyridin-2(3H)-one] | 47.7 | 34.7 | 58.9 | 43.6 | > 90 | 43.4 | 52.5 | 50.1 | 31.8 | – | – | – | –
Cc1nc2c(c(C)c1O)/C(=C/c1[nH]c(C)c(C(=O)NCCN3CCCCC3)c1C)C(=O)N2 [Compound I-42, (Z)-5-((5-Hydroxy-4,6-dimethyl-2-oxo-1H-pyrrolo[2,3-b]pyridin-3(2H)-ylidene)methyl)-2,4-dimethyl-N-(2-(piperidin-1-yl)ethyl)-1H-pyrrole-3-carboxamide] | 63.4 | 8.7 | 51.3 | 8.12 | 21.4 | 15.2 | 14.8 | 13.2 | 70.7 | – | – | – | –
Cc1nc2c(c(C)c1O)/C(=C/c1[nH]c(C)c(C(=O)O)c1C)C(=O)N2 [Compound I-37, (Z)-5-((5-Hydroxy-4,6-dimethyl-2-oxo-1H-pyrrolo[2,3-b]pyridin-3(2H)-ylidene)methyl)-2,4-dimethyl-1H-pyrrole-3-carboxylic acid] | 60.4 | 14.8 | 33.1 | 19.5 | 38 | 26.2 | 14.8 | 19.9 | 55.8 | – | – | – | –
Cc1nc2c(c(C)c1O)/C(=C/c1ccoc1)C(=O)N2 [Compound I-28, (Z)-3-(Furan-3-ylmethylene)-5-hydroxy-4,6-dimethyl-1H-pyrrolo[2,3-b]pyridin-2(3H)-one] | 66.3 | 22.9 | > 90 | – | 19.9 | – | 31.5 | – | 26.1 | – | 22.9 | – | –
